Assay results taken from the Deep4Chem optical property database.
Blank lines part the entries; values can stand above or below the compound they belong to.

Assay: solvent given as SMILES
[1] = in c1cc(-c2cccc(-n3c4ccccc4c4ccccc43)c2)cc(-n2c3ccccc3c3ccccc32)c1

emission maximum (in ClCCl): 421 nm
SMILES: CC1(C)c2cc(-c3ccc4ccc5cccc6ccc3c4c56)ccc2-c2ccc(-c3ccc4ccc5cccc6ccc3c4c56)cc21

SMILES: CC1(C)c2cccc(-c3nc(-c4ccccc4)nc(-c4ccccc4)n3)c2Oc2c(-n3c4ccccc4c4ccccc43)cccc21
emission maximum (in C1CCCCC1): 395 nm
emission maximum (in CC(C)=O): 469 nm
emission maximum (in Cc1ccccc1): 419 nm
emission maximum (in ClC(Cl)Cl): 454 nm

emission maximum (in CC#N): 500.89 nm
emission maximum (in CCO): 471.6 nm
emission maximum (in ClCCl): 470 nm
SMILES: CN(C)c1cc(-c2ccc(C#Cc3ccccc3)cc2)cc2ccccc12

emission maximum (in ClCCl): 733 nm
SMILES: CCOC(=O)COc1ccc(/C=C/C2=C3C(C)=CC(/C=C/c4ccc(OCC(=O)OCC)cc4)=[N+]3[B-](F)(F)n3c2c2ccccc2c3-c2[nH]c(C)cc2C)cc1

emission maximum (in ClCCl): 407 nm
SMILES: CC(C)(C)NC(=O)c1cccc2ccc3c4cc(Cl)ccc4c4ccc(Cl)cc4c3c12

emission maximum (in C1CCOC1): 443 nm
SMILES: COc1cc2oc(=O)c3c4ccc(C(=O)c5ccccc5)cc4c4ccc5cccc6c(c1)c2c3c4c56

emission maximum (in C1CCOC1): 492 nm
SMILES: Cc1ccc(-c2ccc(-c3ccc(C)cc3)c(/C(=C(/c3ccccc3)c3cc(-c4ccc(C)cc4)ccc3-c3ccc(C)cc3)c3ccccc3)c2)cc1

emission maximum (in CC#N): 606 nm
SMILES: CC1=[N+]2C(=C(c3ccccc3)c3c4ccccc4c(C)n3[B-]2(F)F)c2ccccc21

emission maximum (in CO): 440 nm
SMILES: N#Cc1cccc(-c2nc(-c3ccccc3)c(-c3ccccc3)[nH]2)c1

SMILES: Cc1ccc(N2C(c3ccccc3NS(=O)(=O)c3ccc(C)cc3)=NC(c3ccccc3)C2c2ccccc2)cc1 (configuration not stated)
emission maximum (in Cc1ccccc1): 375 nm

emission maximum (in ClCCl): 443 nm
SMILES: CN1c2ccc3c(c2-c2ccccc2S1(=O)=O)-c1ccccc1S(=O)(=O)N3C

emission maximum (in CC#N): 391 nm
SMILES: Cc1ccc(-c2ccc(/C=C/c3ccc(F)cc3)cn2)nc1

emission maximum (in CC1CCCCC1): 498 nm
emission maximum (in CC#N): 530 nm
SMILES: C(=C\c1ccnc2ccccc12)/c1c2ccccc2cc2ccccc12

emission maximum (in C1COCCO1): 521 nm
SMILES: CC(=O)Nc1ccc(C2=C/C(=C\c3ccc(C#N)cc3)C(=O)O2)cc1

emission maximum (in ClCCl): 503 nm
SMILES: O=C(O)C1=C(C(=O)O)C2=C[C@H]3c4ccccc4[C@]2(S1)c1ccccc13

SMILES: F[B-]1(F)n2c(Nc3cccc4cccnc34)ccc2C(c2ccccc2)=C2C=CC(Cl)=[N+]21
emission maximum (in C1CCCCC1): 580 nm
emission maximum (in CC#N): 580 nm
emission maximum (in Cc1ccccc1): 586 nm
emission maximum (in ClC(Cl)Cl): 583 nm

emission maximum (in ClCCl): 421 nm
SMILES: c1ccc2c(-c3c4ccccc4c(-c4ccc(-n5c6ccccc6c6ccccc65)cc4)c4ccccc34)cccc2c1

emission maximum (in ClC(Cl)Cl): 682 nm
SMILES: CCCCCCCCCCOc1cc(OCCCCCCCCCC)cc(C2=C3C(C)=CC(/C=C/c4ccc(OC)cc4)=[N+]3[B-](F)(F)n3c(/C=C/c4ccc(OC)cc4)cc(C=Cc4ccc(OC)cc4)c32)c1

emission maximum (in CC#N): 392 nm
SMILES: Cc1ccc(-c2ccc(/C=C/c3ccc(Cl)cc3)cn2)nc1

emission maximum (in ClC(Cl)Cl): 744 nm
SMILES: Cc1ccc(/C2=c3\cc/c(o3)=C(\c3ccc(C)cc3)c3ccc([nH]3)-c3ccc4n3[P-](=O)(=O)[N+]3=C(C=CC3=C4c3ccco3)c3ccc2[nH]3)cc1

emission maximum (in C1CCCCC1): 465 nm
emission maximum (in C1CCOC1): 537 nm
emission maximum (in CC#N): 572 nm
emission maximum (in CS(C)=O): 585 nm
emission maximum (in ClCCl): 548 nm
SMILES: CN(C)c1ccc(/C=C/c2ncnc3ccccc23)cc1

SMILES: O=C(c1ccncc1)c1ccc(-n2c3ccccc3c3cc(-n4c5ccccc5c5ccccc54)ccc32)cc1
emission maximum (in Cc1ccccc1): 480 nm
emission maximum [1]: 475.23 nm

emission maximum (in C1CCCCC1): 375 nm
SMILES: c1ccc(-c2c3c(c(-c4ccccc4)c4c2-c2ccccc2C4)-c2ccccc2C3)cc1

emission maximum (in ClCCl): 585 nm
SMILES: F[B-]1(F)n2c(cc3c4ccccc4c4ccccc4c32)-c2ccc3ccccc3[n+]21

SMILES: CC(=O)c1ccc2ccc3cccc4ccc1c2c34
emission maximum (in C1CCOC1): 387 nm
emission maximum (in CC#N): 390 nm
emission maximum (in CCCCCC): 387 nm
emission maximum (in CCO): 436 nm
emission maximum (in CN(C)C=O): 392 nm
emission maximum (in CO): 443 nm
emission maximum (in Cc1ccccc1): 392 nm
emission maximum (in ClCCl): 396 nm

emission maximum (in ClCCl): 420 nm
SMILES: COc1ccc(/C=C/c2ncc(-c3ccccc3)o2)cc1OC

emission maximum (in C1CCCCC1): 399.14 nm
emission maximum (in CC#N): 404.15 nm
emission maximum (in ClCCl): 405.52 nm
SMILES: c1ccc2c(-c3ccc4sc5ccccc5c4c3)c3ccccc3cc2c1

emission maximum (in CC#N): 470 nm
SMILES: C=Cc1cc2ccc(N(CC)CC)cc2oc1=O

SMILES: O=S1(=O)c2ccccc2-c2cc(-n3c4ccccc4c4cc(-c5ccc6c(c5)c5ccccc5n6-c5ccccc5)ccc43)ccc21
emission maximum (in O=P(c1ccccc1)(c1ccccc1)c1ccccc1Oc1ccccc1P(=O)(c1ccccc1)c1ccccc1): 462.73 nm

emission maximum (in CC#N): 432 nm
SMILES: c1ccc2c(c1)ccc1oc3ccc4cc5oc6ccc7ccc8oc9ccc%10ccccc%10c9c8c7c6c5cc4c3c12

emission maximum (in C1CCOC1): 417 nm
emission maximum (in C1COCCO1): 417 nm
emission maximum (in CC#N): 417 nm
emission maximum (in CC(C)O): 423 nm
emission maximum (in CCO): 427 nm
emission maximum (in CCOC(C)=O): 416 nm
emission maximum (in CN(C)C=O): 421 nm
emission maximum (in CO): 430 nm
emission maximum (in CS(C)=O): 424 nm
emission maximum (in O): 448 nm
SMILES: NS(=O)(=O)c1ccc(N2N=C(c3ccc(O)cc3)CC2c2ccc(F)cc2)cc1 (configuration not stated)

SMILES: c1cc2c3c(c1)-c1ccc4c5c(ccc(c15)B3c1ccc3c5c(ccc-2c15)CC3)CC4
emission maximum (in Cc1ccccc1): 516 nm

emission maximum (in ClC(Cl)Cl): 644 nm
SMILES: F[B-]1(F)n2cccc2C(c2ccccc2)=C2C=CC(c3cccc(OC4=[N+]5C(=C(c6ccccc6)c6cc(Br)c(-c7ccc[nH]7)n6[B-]5(F)F)C=C4Br)c3)=[N+]21

emission maximum (in ClCCl): 573 nm
SMILES: CC(C)(C)NC(=O)c1ccc(-c2ccc(N3c4ccccc4Oc4ccccc43)cc2)c2ccc3c4ccc(F)cc4c4cc(F)ccc4c3c12

emission maximum (in C1CCCCC1): 333 nm
SMILES: C[SiH](C)c1ccc([SiH](C)C)c2ccccc12

SMILES: CCOC(=O)/C(C#N)=C/c1cc2c3ccccc3n(C)c2cc1OC
emission maximum (in C1CCOC1): 460 nm
emission maximum (in CC#N): 486 nm
emission maximum (in CCOC(C)=O): 458 nm
emission maximum (in CN(C)C=O): 486 nm
emission maximum (in CO): 486 nm
emission maximum (in CS(C)=O): 488 nm
emission maximum (in Cc1ccccc1): 446 nm
emission maximum (in ClC(Cl)Cl): 468 nm
emission maximum (in ClCCl): 472 nm

emission maximum (in CC#N): 501 nm
SMILES: N#C/C(=C\c1ccc(Cl)cc1)c1nc(-c2ccccc2)c(-c2ccccc2)s1

SMILES: CC1(C)c2ccccc2N(c2ccc(-c3nc(C#N)c(C#N)nc3-c3ccc(N4c5ccccc5C(C)(C)c5ccccc54)cc3)cc2)c2ccccc21
emission maximum (in Cc1ccccc1): 620 nm
emission maximum [1]: 570 nm

emission maximum (in c1ccccc1): 407 nm
SMILES: CCOC(=O)CSc1nc(C)c(CC)c(C#N)c1C#N

emission maximum (in CCO): 428 nm
emission maximum (in ClCCl): 421 nm
SMILES: Clc1ncc(-c2c3ccccc3c(-c3cnc(Cl)nc3)c3ccccc23)cn1

emission maximum (in C1COCCO1): 538.57 nm
SMILES: CCC12C(=C3C(=C4c5ccc(-c6ccc(CO)cc6)cc5S(=O)(=O)C41CC)C(F)(F)C(F)(F)C3(F)F)c1ccc(-c3ccc(CO)cc3)cc1S2(=O)=O (configuration not stated)

emission maximum (in ClCCl): 403 nm
SMILES: Cc1c(C)c(-c2cccnc2)c(C)c(C)c1B(c1c(C)c(C)c(-c2cccnc2)c(C)c1C)c1c(C)c(C)c(-c2cccnc2)c(C)c1C

SMILES: CC(C)(C)c1cc(-c2c3cccc4c5cccc6c(-c7cc(C(C)(C)C)cc(C(C)(C)C)c7)c7cccc8c9cccc2c9c(c34)c(c65)c78)cc(C(C)(C)C)c1
emission maximum (in Cc1ccccc1): 701 nm

SMILES: Cc1ccc2cc(C)ccc2c1
emission maximum (in C1CCCCC1): 342.82 nm

SMILES: Nc1ccc2c3c(cccc13)C(=O)c1ccccc1-2
emission maximum (in CC#N): 626.17 nm
emission maximum (in CC(C)=O): 610.13 nm
emission maximum (in CC(C)O): 664.89 nm
emission maximum (in CCCCOCCCC): 570.13 nm
emission maximum (in CCOC(C)=O): 592.07 nm
emission maximum (in CCOCC): 585.14 nm
emission maximum (in CO): 667.11 nm
emission maximum (in Cc1ccccc1): 569.15 nm
emission maximum (in Clc1ccccc1): 579.04 nm
emission maximum (in N#Cc1ccccc1): 610.13 nm
emission maximum (in O=C1CCCCC1): 610.13 nm

emission maximum (in CC#N): 727 nm
SMILES: CN1/C(=C\C=C\C2=C3C=CC(c4ccccc4)=[N+]3[B-](F)(F)n3c2ccc3-c2ccccc2)Sc2ccccc21

SMILES: N#Cc1c(-n2c3ccccc3c3ccccc32)c(F)c(-n2c3ccccc3c3ccccc32)c(-n2c3ccccc3c3ccccc32)c1-n1c2ccccc2c2ccccc21
emission maximum (in Cc1ccccc1): 453 nm
emission maximum (in c1ccc([Si](c2ccccc2)(c2ccc(-n3c4ccccc4c4ccccc43)cc2)c2ccc(-n3c4ccccc4c4ccccc43)cc2)cc1): 470 nm

emission maximum (in ClCCl): 405 nm
SMILES: Oc1ccc2ccccc2c1-c1nc2c(c3c1-c1ccccc1CC3)-c1ccccc1CC2

emission maximum (in CCO): 420 nm
SMILES: C[n+]1c2c(c(-c3ccccc3)c3c1CCCC3)CCCC2

emission maximum (in C1CCCCC1): 328 nm
SMILES: C[Si](C)(C)c1cccc2ccccc12

SMILES: C(#Cc1nc2ccccc2s1)c1ccc(N(c2ccc(C#Cc3nc4ccccc4s3)cc2)c2ccc(C#Cc3nc4ccccc4s3)cc2)cc1
emission maximum (in Cc1ccccc1): 434 nm

emission maximum (in ClCCl): 608 nm
SMILES: CN(C)c1ccc(C#Cc2cc(C#Cc3ccc(C(F)(F)F)cc3)c3ccc4c(C#Cc5ccc(C(F)(F)F)cc5)cc(C#Cc5ccc(N(C)C)cc5)c5ccc2c3c54)cc1

emission maximum (in C1CCOC1): 496 nm
emission maximum (in CC#N): 545 nm
emission maximum (in CCCCCCC): 443 nm
emission maximum (in CS(C)=O): 550 nm
emission maximum (in ClCCl): 526 nm
SMILES: C(=C\c1ccncn1)/c1ccc(N(c2ccccc2)c2ccccc2)cc1

emission maximum (in CCO): 529 nm
SMILES: CNc1cc2nc3cc(F)c(F)cc3nc2cc1NC

emission maximum (in C1CCCCC1): 569 nm
emission maximum (in c1ccccc1): 622 nm
SMILES: Nc1ccc2c(c1)C(=O)c1ccccc1-2

SMILES: CC(C)(C)c1ccc2c(c1)c1cc(C(C)(C)C)ccc1n2-c1ccc(-c2nc(-c3ccccc3)nc(-c3ccccc3)n2)c2c1c1ccccc1n2-c1ccccc1
emission maximum (in C1CCOC1): 450 nm
emission maximum (in Cc1ccccc1): 417 nm
emission maximum (in ClCCl): 474.77 nm

SMILES: CCN1C(=O)C(C2C(=O)c3c4ccccc4cc4cc5ccccc5c2c34)SC1=S (configuration not stated)
emission maximum (in C1CCOC1): 570 nm
emission maximum (in CC#N): 593 nm
emission maximum (in CCCCCC): 539 nm
emission maximum (in Cc1ccccc1): 563 nm
emission maximum (in ClCCl): 582 nm

emission maximum (in ClCCl): 519 nm
SMILES: CCCCCCN1C(=O)c2cccc3c(-c4ccc(-c5cc(-c6ccc(Cl)cc6)nn5-c5ccccc5)s4)ccc(c23)C1=O
